# Measurements: paper PMC10980815, “Cell surface patching via CXCR4-targeted nanothreads for cancer metastasis inhibition” (Nature Communications, 2024)
# “And” between values parts separate entries of the source, which are not always exact repeats. Equal entries are not always repeated. Ends that are not written are not given here. HPMA copolymer = HPMA copolymer made by RAFT copolymerization of HPMA with N-(3-aminopropyl)methacrylamide (APMA), bearing maleimide groups for grafting
# Columns and labels:
# 4T1 cells [1] = assay: Transwell invasion assay (matrigel); format: cell-based, murine
# Procedure: (§1) Wound healing assay and transwell migration and invasion assay were conducted to investigate in vitro metastasis inhibition. For the wound healing assay, 4T1 cells (5 × 10^5 cells) were cultured in 12-well plates (NEST Biotechnology) as monolayer with more than 90% coverage. Sterile 200 μL pipette tips were used to scrape off the cells, generating a linear cell-free area in the middle of the well. Subsequently, cells were washed by PBS to remove debris. In the stimulated group, 4T1 cells were stimulated with CXCL12 (100 ng/mL) for 1 h. […] In the P-BS-CM1 → P-CM2 group, 4T1 cells underwent consecutive treatment with P-BS-CM1 for 1 h and P-CM2 for 1 h before CXCL12 stimulation (1 mg/mL BS equivalence, CM1:CM2, 1:1 mol%). Images of the wound were recorded by a microscope at 0 h and 24 h after CXCL12 stimulation, and the wound healing rate was calculated using Image J software. For the transwell migration and invasion assay, 4T1 cells (5 × 10^5 cells) were seeded in the non-coated upper chamber (Millipore, 8 μm) or GelNest™ matrigel (NEST Biotechnology) pre-coated upper chamber. The cells underwent the same treatment conditions as wound healing assay. After 24 h of treatment, migrated or invaded cells across the membrane were stained with 0.1% crystal violet, imaged by microscope, and quantified by absorbance at 570 nm after dissolution.
# LOX = LOX ELISA (intra-tumoral, serum, pulmonary); format: in vivo, female BALB/c mice; design: Pulmonary LOX: unit not given beside the values; Intratumoral LOX / Systemic LOX: unit not given here; details: for Systemic LOX: serum
# Procedure: (§2) 4T1 cells (1 × 10^6 cells) were injected into the third mammary fat pad of female BALB/c mice (6–8-week). […] On day 28, blood samples, lungs and tumors were harvested.
# (§3) To explore the “seed-soil” crosstalk, the serum, intra-tumoral, and pulmonary concentration of LOX was determined using enzyme-linked immunosorbent assay kits (CSB-EL013041MO, CUSABIO, https://www.cusabio.com/) according to the manufacturer’s instructions. The serum, intra-tumoral, and pulmonary concentration of TGF-β was determined using mouse TGF-β ELISA Kit (Cat No.: HB1328-Mu). The formation of PMN was investigated through lung slices subjected to immunofluorescent staining of LOX, E-cadherin, and S100A8. For immunofluorescent staining of E-cadherin, Lung slices were stained with CoraLite® Plus 647 anti-mouse CD324 (E-cadherin, 1:300 dilution). For immunofluorescent staining of LOX and S100A8, Lung slices were separately stained with anti-LOX recombinant rabbit monoclonal antibody (1:500 dilution) or S100-A8 / MRP8 rabbit pAb (1:500 dilution), followed by staining with goat anti-rabbit IgG H&L Alexa Fluor® 647 (1:1000 dilution), respectively. Single-cell suspensions of lungs were analyzed using flow cytometry to assess BMDC (CD11b^+Gr1^+) with PE anti-mouse/human CD11b antibody (1:300 dilution) and FITC anti-mouse Ly-6G/Ly-6C (Gr-1) antibody (1:300 dilution). Chemokine concentrations in lungs were determined using a mouse CXCL12 ELISA kit.
# 4T1 cells [2] = assay: Transwell migration assay; format: cell-based, murine; details: stimulated 4T1 cells; individual replicates, n = 3
# Procedure: as §1
# TGF-β = TGF-β ELISA (intra-tumoral, serum, pulmonary); format: in vivo, female BALB/c mice; design: Pulmonary TGF-β: unit not given beside the values; Intratumoral TGF-β / Systemic TGF-β: unit not given here; details: for Systemic TGF-β: serum
# Procedure: as §2, §3
# CXCL12 in lungs = assay: Pulmonary CXCL12 ELISA; format: in vivo, female BALB/c mice
# Procedure: as §2, §3
# ζ-potential (Zetasizer) = format: physicochemical; details: Malvern Zetasizer Nano ZS90; mean ± SD
# Procedure: (§4) The average molecular weight (Mw) and polydispersity (PDI) of the HPMA copolymer conjugates were determined by gel permeation chromatography (GPC) on an AKTA purifier equipment with a Superose 6 10/300 GL analytical column (GE Healthcare, USA) and a differential refraction detector (KNAUER, 2300, Germany). Hydrodynamic sizes and zeta potentials were determined using a Malvern Zetasizer Nano ZS90 equipment (Malvern Instruments Ltd, Malvern, UK). The contents of BS, CM1, and CM2 were determined using a bicinchoninic acid (BCA) protein assay. The PS concentration was determined by ultraviolet-visible (UV-Vis) spectroscopy at its characteristic absorbance peak (660 nm).
# [3] = Hydrodynamic size / size distribution by dynamic light scattering; format: physicochemical; details: Malvern Zetasizer Nano ZS90, mean ± SD
# Procedure: as §4
# To investigate the coiled-coil assembly, varying CM1-to-CM2 ratios (3:1, 1:1, and 1:3) of P-BS-CM1 and P-CM2 were mixed in 10 mM PBS (pH 7.4) at 25 °C for 10 min. The total polymer concentration was kept constant at 10 mg/mL. Circular dichroism spectra, size distribution, and rheological properties of P-BS-CM1, P-CM2, and their mixture were measured. The surface morphology of P-BS-CM1 and the mixture (P-BS-CM1 + P-CM2) was observed using scanning electron microscopy. Additionally, for the FRET assay, CM1-to-CM2 equimolar of P-BS-CM1-Cy5 and P-CM2-Cy3 were mixed in 10 mM PBS (pH 7.4) at 25 °C for 10 min. Fluorescent spectra of P-BS-CM1-Cy5, P-CM2-Cy3, and the mixture (P-BS-CM1-Cy5+P-CM2-Cy3) were recorded at the Cy3 excitation wavelength of 550 nm.
# [4] = ELISA, i.v. days 7, 14, 21, analysis day 28, mouse 1 of 5
substance,measurement,setting,value
LGASWHRPDKCCLGYQKRPLPA [Free BS],Invasion content (%),4T1 cells [1]; replicate 1,100.41%
same,Invasion content (%),4T1 cells [1]; replicate 2,88.2%
same,Invasion content (%),4T1 cells [1]; replicate 3,97.02%
same,Intratumoral LOX,LOX; replicate 1,4.19
same,Pulmonary LOX,LOX; replicate 1,254.76
same,Intratumoral LOX,LOX; replicate 2,4.18
same,Pulmonary LOX,LOX; replicate 2,210.31
same,Intratumoral LOX,LOX; replicate 3,5.17
same,Pulmonary LOX,LOX; replicate 3,211.1
same,Intratumoral LOX,LOX; replicate 4,5.44
same,Pulmonary LOX,LOX; replicate 4,280.17
same,Intratumoral LOX,LOX; replicate 5,4.81
same,Pulmonary LOX,LOX; replicate 5,276.43
same,Systemic LOX,LOX; replicate 1,127.4
same,Systemic LOX,LOX; replicate 2,132.76
same,Systemic LOX,LOX; replicate 3,133.61
same,Systemic LOX,LOX; replicate 4,151.3
same,Systemic LOX,LOX; replicate 5,147.4
same,Migration content (%),4T1 cells [2],99.141% and 98.012% and 94.753%
same,Intratumoral TGF-β,TGF-β; replicate 1,20.98
same,Pulmonary TGF-β,TGF-β; replicate 1,9.12
same,Intratumoral TGF-β,TGF-β; replicate 2,26.43
same,Pulmonary TGF-β,TGF-β; replicate 2,10.3
same,Intratumoral TGF-β,TGF-β; replicate 3,26.11
same,Pulmonary TGF-β,TGF-β; replicate 3,11.1
same,Intratumoral TGF-β,TGF-β; replicate 4,22.3
same,Pulmonary TGF-β,TGF-β; replicate 4,10.7
same,Intratumoral TGF-β,TGF-β; replicate 5,20.45
same,Pulmonary TGF-β,TGF-β; replicate 5,8.9
same,Systemic TGF-β,TGF-β; replicate 1,321.2
same,Systemic TGF-β,TGF-β; replicate 2,324.5
same,Systemic TGF-β,TGF-β; replicate 3,372.1
same,Systemic TGF-β,TGF-β; replicate 4,355.2
same,Systemic TGF-β,TGF-β; replicate 5,352
same,pulmonary CXCL12 (Fig. 6g),CXCL12 in lungs; [4],440
same,pulmonary CXCL12 (Fig. 6g),"CXCL12 in lungs; same, mouse 2 of 5",579
same,pulmonary CXCL12 (Fig. 6g),"CXCL12 in lungs; same, mouse 3 of 5",367
same,pulmonary CXCL12 (Fig. 6g),"CXCL12 in lungs; same, mouse 4 of 5",552
same,pulmonary CXCL12 (Fig. 6g),"CXCL12 in lungs; same, mouse 5 of 5",532
"P-BS: HPMA copolymer-BS conjugate, ~6 BS grafts per polymer (LGASWHRPDKCCLGYQKRPLPA; not fully specified (residues 11, 12); also: about 6 peptides grafted on HPMA copolymer via cysteine-maleimide thioether links)",Invasion content (%),4T1 cells [1]; replicate 1,61.3%
same,Invasion content (%),4T1 cells [1]; replicate 2,50.16%
same,Invasion content (%),4T1 cells [1]; replicate 3,42.1%
same,Intratumoral LOX,LOX; replicate 1,3.43
same,Pulmonary LOX,LOX; replicate 1,195.4
same,Intratumoral LOX,LOX; replicate 2,2.08
same,Pulmonary LOX,LOX; replicate 2,174.61
same,Intratumoral LOX,LOX; replicate 3,1.87
same,Pulmonary LOX,LOX; replicate 3,154.51
same,Intratumoral LOX,LOX; replicate 4,2.69
same,Pulmonary LOX,LOX; replicate 4,156.3
same,Intratumoral LOX,LOX; replicate 5,2.96
same,Pulmonary LOX,LOX; replicate 5,144.2
same,Systemic LOX,LOX; replicate 1,76.42
same,Systemic LOX,LOX; replicate 2,77.13
same,Systemic LOX,LOX; replicate 3,91.2
same,Systemic LOX,LOX; replicate 4,85.1
same,Systemic LOX,LOX; replicate 5,105.1
same,ζ-potential,ζ-potential (Zetasizer),-15.53±1.45 mV
same,Migration content (%),4T1 cells [2],52.3% and 41.02% and 47.1%
same,Size,[3],15.7±0.8 nm
same,Intratumoral TGF-β,TGF-β; replicate 1,15.43
same,Pulmonary TGF-β,TGF-β; replicate 1,5.4
same,Intratumoral TGF-β,TGF-β; replicate 2,15.3
same,Pulmonary TGF-β,TGF-β; replicate 2,5.1
same,Intratumoral TGF-β,TGF-β; replicate 3,19.3
same,Pulmonary TGF-β,TGF-β; replicate 3,7.1
same,Intratumoral TGF-β,TGF-β; replicate 4,17.3
same,Pulmonary TGF-β,TGF-β; replicate 4,6.3
same,Intratumoral TGF-β,TGF-β; replicate 5,15.33
same,Pulmonary TGF-β,TGF-β; replicate 5,4.2
same,Systemic TGF-β,TGF-β; replicate 1,276.4
same,Systemic TGF-β,TGF-β; replicate 2,245.1
same,Systemic TGF-β,TGF-β; replicate 3,225.1
same,Systemic TGF-β,TGF-β; replicate 4,267.3
same,Systemic TGF-β,TGF-β; replicate 5,241.2
same,pulmonary CXCL12 (Fig. 6g),CXCL12 in lungs; [4],258
same,pulmonary CXCL12 (Fig. 6g),"CXCL12 in lungs; same, mouse 2 of 5",221
same,pulmonary CXCL12 (Fig. 6g),"CXCL12 in lungs; same, mouse 3 of 5",368
same,pulmonary CXCL12 (Fig. 6g),"CXCL12 in lungs; same, mouse 4 of 5",245
same,pulmonary CXCL12 (Fig. 6g),"CXCL12 in lungs; same, mouse 5 of 5",267
"P-CM2-Cy3: Cy3-labeled P-CM2 (C(HPMA copolymer)YGGEVSALEKEVSALEKKNSALEKEVSALEKEVSALEK; also: Cy3 label on conjugate, position not given here)",ζ-potential,ζ-potential (Zetasizer),-9.21±0.67 mV
same,Size,[3],20.4±0.5 nm
